From ChEMBL document CHEMBL5370543, “Discovery of 6-aryl-2-(3,4,5-trimethoxyphenyl)thiazole[3,2-b][1,2,4]triazoles as potent tubulin polymerization inhibitors” (Eur J Med Chem, 2023)

Assays:
MCF7 = assay: Antiproliferative activity against human MCF7 cells assessed as cell growth inhibition incubated for 72 hrs by MTT assay; type: functional, cell-based; settings: MCF7, 72 h
SGC-7901 [1] = assay: Antiproliferative activity against human SGC-7901 cells assessed as cell growth inhibition incubated for 72 hrs by MTT assay; type: functional, cell-based; settings: SGC-7901, 72 h
HT-1080 = assay: Antiproliferative activity against human HT-1080 cells assessed as cell growth inhibition incubated for 72 hrs by MTT assay; type: functional, cell-based; settings: HT-1080, 72 h
SGC-7901 [2] = assay: Induction of cell cycle arrest in human SGC-7901 cells assessed as accumulation at S phase at 2 times IC50 incubated for 24 hrs by PI/RNase staining based flow cytometry (reference value: 44 %); type: functional
SGC-7901 [3] = assay: Induction of cell cycle arrest in human SGC-7901 cells assessed as accumulation at G0/G1 phase at 2 times IC50 incubated for 72 hrs by PI/RNase staining based flow cytometry (reference value: 41 %); type: functional
SGC-7901 [4] = assay: Induction of cell cycle arrest in human SGC-7901 cells assessed as accumulation at G2/M phase at 2 times IC50 incubated for 6 hrs by PI/RNase staining based flow cytometry (reference value: 9 %); type: functional
SGC-7901 [5] = assay: Induction of cell cycle arrest in human SGC-7901 cells assessed as accumulation at S phase at 2 times IC50 incubated for 6 hrs by PI/RNase staining based flow cytometry (reference value: 44 %); type: functional
SGC-7901 [6] = assay: Induction of cell cycle arrest in human SGC-7901 cells assessed as accumulation at sub-G1 phase at 2 times IC50 incubated for 24 hrs by PI/RNase staining based flow cytometry (reference value: 6 %); type: functional
SGC-7901 [7] = assay: Induction of cell cycle arrest in human SGC-7901 cells assessed as accumulation at G0/G1 phase at 2 times IC50 incubated for 48 hrs by PI/RNase staining based flow cytometry (reference value: 41 %); type: functional
SGC-7901 [8] = assay: Induction of cell cycle arrest in human SGC-7901 cells assessed as accumulation at G0/G1 phase at 2 times IC50 incubated for 6 hrs by PI/RNase staining based flow cytometry (reference value: 41 %); type: functional
SGC-7901 [9] = assay: Induction of cell cycle arrest in human SGC-7901 cells assessed as accumulation at S phase at 2 times IC50 incubated for 48 hrs by PI/RNase staining based flow cytometry (reference value: 44 %); type: functional
SGC-7901 [10] = assay: Induction of cell cycle arrest in human SGC-7901 cells assessed as accumulation at sub-G1 phase at 2 times IC50 incubated for 48 hrs by PI/RNase staining based flow cytometry (reference value: 6 %); type: functional
SGC-7901 [11] = assay: Induction of cell cycle arrest in human SGC-7901 cells assessed as accumulation at G0/G1 phase at 2 times IC50 incubated for 12 hrs by PI/RNase staining based flow cytometry (reference value: 41 %); type: functional
[12] = Cytotoxicity against HUVEC cells assessed as cell growth inhibition incubated for 72 hrs by MTT assay; type: toxicity, cell-based; settings: human
SGC-7901 [13] = assay: Induction of cell cycle arrest in human SGC-7901 cells assessed as accumulation at sub-G1 phase at 2 times IC50 incubated for 12 hrs by PI/RNase staining based flow cytometry (reference value: 6 %); type: functional
SGC-7901 [14] = assay: Induction of cell cycle arrest in human SGC-7901 cells assessed as accumulation at sub-G1 phase at 2 times IC50 incubated for 72 hrs by PI/RNase staining based flow cytometry (reference value: 6 %); type: functional
[15] = Selectivity index, ratio of IC50 for HUVEC cells to IC50 for human SGC-7901 cells; type: functional
SGC-7901 [16] = assay: Induction of cell cycle arrest in human SGC-7901 cells assessed as accumulation at G2/M phase at 2 times IC50 incubated for 12 hrs by PI/RNase staining based flow cytometry (reference value: 9 %); type: functional
SGC-7901 [17] = assay: Induction of cell cycle arrest in human SGC-7901 cells assessed as accumulation at S phase at 2 times IC50 incubated for 72 hrs by PI/RNase staining based flow cytometry (reference value: 44 %); type: functional
SGC-7901 [18] = assay: Induction of cell cycle arrest in human SGC-7901 cells assessed as accumulation at G2/M phase at 2 times IC50 incubated for 72 hrs by PI/RNase staining based flow cytometry (reference value: 9 %); type: functional
SGC-7901 [19] = assay: Induction of cell cycle arrest in human SGC-7901 cells assessed as accumulation at G0/G1 phase at 2 times IC50 incubated for 24 hrs by PI/RNase staining based flow cytometry (reference value: 41 %); type: functional
SGC-7901 [20] = assay: Induction of cell cycle arrest in human SGC-7901 cells assessed as accumulation at G2/M phase at 2 times IC50 incubated for 48 hrs by PI/RNase staining based flow cytometry (reference value: 9 %); type: functional
SGC-7901 [21] = assay: Induction of cell cycle arrest in human SGC-7901 cells assessed as accumulation at sub-G1 phase at 2 times IC50 incubated for 6 hrs by PI/RNase staining based flow cytometry (reference value: 6 %); type: functional
SGC-7901 [22] = assay: Induction of cell cycle arrest in human SGC-7901 cells assessed as accumulation at S phase at 2 times IC50 incubated for 12 hrs by PI/RNase staining based flow cytometry (reference value: 44 %); type: functional
SGC-7901 [23] = assay: Induction of cell cycle arrest in human SGC-7901 cells assessed as accumulation at G2/M phase at 2 times IC50 incubated for 24 hrs by PI/RNase staining based flow cytometry (reference value: 9 %); type: functional
4T1 = assay: Antitumor activity against mouse 4T1 cells allografted in Balb/c mouse assessed as tumor weight at 5 mg/kg, iv administered every other day measured after 12 days (reference value: 448 mg); type: functional; settings: time 12 day
Tubulin (Homo sapiens) = Tubulin (Homo sapiens) (UniProt P68371+Q9H4B7+P0DPH7+P68366+Q13509+Q71U36+P04350+Q3ZCM7+P07437+P68363+Q9BQE3+Q6PEY2+Q13885+Q9BVA1+Q9BUF5); assay: Binding affinity to tubulin (unknown origin) at colchicine binding site assessed as tubulin-colchicine complex competition rate at 1.25 uM preincubated for 45 mins followed by colchicine addition by fluorescence based assay relative to control; type: protein-complex assay

Molecule COc1cc(-c2nc3scc(-c4ccc(Cl)cc4)n3n2)cc(OC)c1OC has an IC50 (MCF7) of 4.64 µM, an IC50 (SGC-7901 [1]) of 2.19 µM and an IC50 (HT-1080) of 3.75 µM.
Molecule COc1cc(-c2nc3scc(-c4ccc(C(F)(F)F)cc4)n3n2)cc(OC)c1OC has an IC50 (MCF7) of 12.2 µM, an IC50 (SGC-7901 [1]) of 4.09 µM and an IC50 (HT-1080) of 2.91 µM.
With COc1cc(-c2nc3scc(-c4ccc(F)c(F)c4)n3n2)cc(OC)c1OC the IC50 (MCF7) was 4.97 µM, the IC50 (SGC-7901 [1]) was 8.11 µM and the IC50 (HT-1080) was 2.85 µM.
With COc1cc(-c2nc3scc(-c4cc(F)cc(F)c4)n3n2)cc(OC)c1OC the IC50 (MCF7) was 3.86 µM, the IC50 (SGC-7901 [1]) was 0.61 µM and the IC50 (HT-1080) was 2.31 µM.
For COc1cc(-c2nc3scc(-c4cccc(Cl)c4)n3n2)cc(OC)c1OC, the IC50 (MCF7) was 3.09 µM, the IC50 (SGC-7901 [1]) was 0.43 µM and the IC50 (HT-1080) was 1.53 µM.
COc1cc2c(c(OC)c1OC)-c1ccc(OC)c(=O)cc1[C@@H](NC(C)=O)CC2 [COLCHICINE] showed an Activity (SGC-7901 [2]) of 12%, an Activity (SGC-7901 [3]) of 1% and an Activity (SGC-7901 [4]) of 16%. It also gave an IC50 (MCF7) of 0.068 µM, an Activity (SGC-7901 [5]) of 42% and an Activity (SGC-7901 [6]) of 14%. For the same molecule, the Activity (SGC-7901 [7]) was 0%, the Activity (SGC-7901 [8]) was 33% and the Activity (SGC-7901 [9]) was 12%. The Activity (SGC-7901 [10]) was 16%, the Activity (SGC-7901 [11]) was 20% and the IC50 at 72 h [12] was 0.21 µM. The Activity (SGC-7901 [13]) was 12%, the Activity (SGC-7901 [14]) was 41% and the “Ratio IC50” value [15] was 1.91. The Activity (SGC-7901 [16]) was 52%, the Activity (SGC-7901 [17]) was 8% and the Activity (SGC-7901 [18]) was 50%. The Activity (SGC-7901 [19]) was 10%, the Activity (SGC-7901 [20]) was 72% and the Activity (SGC-7901 [21]) was 9%. It also gave an IC50 (SGC-7901 [1]) of 0.11 µM, an Activity (SGC-7901 [22]) of 16% and an IC50 (HT-1080) of 0.073 µM. It also gave an Activity (SGC-7901 [23]) of 64%.
Work on Nc1ccn([C@@H]2O[C@H](CO)[C@@H](O)C2(F)F)c(=O)n1 [GEMCITABINE] yielded an Activity (4T1) of 17.02 mg.
Work on COc1cc(-c2nc3scc(-c4ccccc4Cl)n3n2)cc(OC)c1OC yielded an IC50 (MCF7) of 7.48 µM, an IC50 (SGC-7901 [1]) of 4.47 µM and an IC50 (HT-1080) of 3.38 µM.
For COc1cc(-c2nc3scc(-c4ccc(F)cc4)n3n2)cc(OC)c1OC, the IC50 (MCF7) was > 30 µM, the IC50 (SGC-7901 [1]) was > 30 µM and the IC50 (HT-1080) was > 30 µM.
Molecule COc1cc(-c2nc3scc(-c4cccc(F)c4)n3n2)cc(OC)c1OC has an IC50 (MCF7) of 4.86 µM, an IC50 (SGC-7901 [1]) of 0.78 µM and an IC50 (HT-1080) of 2.74 µM.
In the case of COc1cc(-c2nc3scc(-c4cccc(N)c4)n3n2)cc(OC)c1OC, the IC50 (MCF7) is reported as 3.61 µM, the IC50 (SGC-7901 [1]) is reported as 0.82 µM and the IC50 (HT-1080) is reported as 2.13 µM.
For COc1ccc(-c2csc3nc(-c4cc(OC)c(OC)c(OC)c4)nn23)cc1OC, the IC50 (MCF7) was 5.88 µM, the IC50 (SGC-7901 [1]) was 3.69 µM and the IC50 (HT-1080) was 11.7 µM.
For COc1cc(-c2nc3scc(-c4ccc([N+](=O)[O-])cc4)n3n2)cc(OC)c1OC, the IC50 (MCF7) was > 30 µM, the IC50 (SGC-7901 [1]) was 3.03 µM and the IC50 (HT-1080) was 4.3 µM.
COc1cccc(-c2csc3nc(-c4cc(OC)c(OC)c(OC)c4)nn23)c1 showed an IC50 (MCF7) of 4.94 µM, an IC50 (SGC-7901 [1]) of 0.94 µM and an IC50 (HT-1080) of 2.18 µM.
Work on COc1cc(-c2nc3scc(-c4ccccc4F)n3n2)cc(OC)c1OC yielded an IC50 (MCF7) of 5.89 µM, an IC50 (SGC-7901 [1]) of 7.3 µM and an IC50 (HT-1080) of 1.65 µM.
Work on COc1cc(-c2nc3scc(-c4cc(C)cc(C)c4)n3n2)cc(OC)c1OC yielded an IC50 (MCF7) of 5.41 µM, an IC50 (SGC-7901 [1]) of 0.55 µM and an IC50 (HT-1080) of 1.42 µM.
With COc1ccc(/C=C\c2cc(OC)c(OC)c(OC)c2)cc1O the Activity (Tubulin (Homo sapiens)) was 23.8%.
For COc1cc(-c2nc3scc(-c4ccc(C)cc4)n3n2)cc(OC)c1OC, the IC50 (MCF7) was 2.58 µM, the IC50 (SGC-7901 [1]) was 3.66 µM and the IC50 (HT-1080) was 1.51 µM.
Molecule COc1cc(-c2nc3scc(-c4cccc([N+](=O)[O-])c4)n3n2)cc(OC)c1OC has an IC50 (MCF7) of 3.13 µM, an IC50 (SGC-7901 [1]) of 0.75 µM and an IC50 (HT-1080) of 1.5 µM.
Work on COc1cc(-c2nc3scc(-c4ccccc4Br)n3n2)cc(OC)c1OC yielded an IC50 (MCF7) of 5.26 µM, an IC50 (SGC-7901 [1]) of 6.41 µM and an IC50 (HT-1080) of 1.36 µM.
COc1ccccc1-c1csc2nc(-c3cc(OC)c(OC)c(OC)c3)nn12 gave an IC50 (MCF7) of 4.99 µM, an IC50 (SGC-7901 [1]) of 7.25 µM and an IC50 (HT-1080) of 7.55 µM.
Work on COc1ccc(-c2csc3nc(-c4cc(OC)c(OC)c(OC)c4)nn23)cc1F yielded an IC50 (MCF7) of 5.08 µM, an IC50 (SGC-7901 [1]) of 10 µM and an IC50 (HT-1080) of 3.79 µM.
For COc1cc(-c2nc3scc(-c4ccc(Br)cc4)n3n2)cc(OC)c1OC, the IC50 (MCF7) was 6.88 µM, the IC50 (SGC-7901 [1]) was 5.82 µM and the IC50 (HT-1080) was 7.49 µM.
COc1ccc(-c2csc3nc(-c4cc(OC)c(OC)c(OC)c4)nn23)cc1 showed an IC50 (MCF7) of 8.28 µM, an IC50 (SGC-7901 [1]) of 6.19 µM and an IC50 (HT-1080) of 3.76 µM.
For COc1cc(-c2nc3scc(-c4cccc(Br)c4)n3n2)cc(OC)c1OC, the IC50 (MCF7) was 3.46 µM, the IC50 (SGC-7901 [1]) was 0.62 µM and the IC50 (HT-1080) was 1.71 µM.
With COc1cc(-c2nc3scc(-c4ccccc4)n3n2)cc(OC)c1OC the IC50 (MCF7) was 4.38 µM, the IC50 (SGC-7901 [1]) was 0.88 µM and the IC50 (HT-1080) was 3.64 µM.
